{
  "source": "patent US20240041840A1",
  "about": "(Areteia Therapeutics, Inc., priority 2020, published 2024)",
  "test_system": "subjects with eosinophilic asthma",
  "description": "Pulmonary function is measured by performing a spirometry, which measures forced expiratory volume in is (FEV1), the volume of air moved in the first second of exhalation, this is a well-accepted measure of asthma. Forced vital capacity (FVC) is the total volume of air exhaled during the entire forced expiratory volume (FEV) test. The FEV1/FVC ratio is a calculated measure that may provide a more specific measure of bronchoconstriction, independent of processes such as air trapping. Pulmonary function testing can be tested pre-bronchodilator (after waiting a sufficient time so that all bronchodilator medications have cleared) or post-bronchodilator, typically 15-30 minutes after inhaling a short-acting bronchodilator, such as albuterol. Bronchodilator reversibility (BDR) is calculated and assessed by analyzing FEV1 pre- and post-bronchodilator, and calculating the change both as absolute (ml) and percentage change.\nEvaluation of Efficacy: Blood eosinophil count, changes in pulmonary function (FEV1), Asthma Control Questionnaire (ACQ-6), Asthma Control Questionnaire (ACQ-7), Asthma Quality of Life Questionnaire (AQLQ), exhaled nitric oxide, pharyngeal and nasal eosinophil peroxidase were collected periodically during the study.\nTo control the alpha level for testing 3 dose groups versus placebo for the primary endpoint and for testing FEV1, a closed hierarchical testing procedure was used in the following order: 1. First, the 300 mg/day dose group was tested versus placebo for change in blood absolute eosinophil count, and if this reached the <0.05 level then, 2. the 150 mg/day dose group was tested versus placebo at the 0.05 level for change in blood absolute eosinophil count, and if this reached the <0.05 level then, 3. the pooled 150 and 300 mg/day dose groups were tested versus placebo at the 0.05 level for change in FEV1 at Week 12, then 4. the 75 mg/day dose group was tested versus placebo at the 0.05 level for change in blood absolute eosinophil count, and if this reached the <0.05 level.",
  "key": {"[1]": {"details": "300 mg/day, Table 6D, timepoint printed as Analysis Baseline*"}, "[2]": {"details": "300 mg/day, Table 6D, timepoint printed as Week 4"}, "[3]": {"details": "Week 4, pooled dexpramipexole arms, <50% AEC reduction at Week 12"}, "[4]": {"details": "Week 4, pooled dexpramipexole arms, ≥50% AEC reduction at Week 12"}, "[5]": {"details": "Week 8, pooled dexpramipexole arms, ≥50% AEC reduction at Week 12"}, "[6]": {"details": "Week 12, pooled dexpramipexole arms, <50% AEC reduction at Week 12"}, "[7]": {"details": "Week 12, pooled dexpramipexole arms, ≥50% AEC reduction at Week 12"}, "[8]": {"details": "Week 16 or Week 18, pooled dexpramipexole arms, ≥50% AEC reduction at Week 12"}},
  "note": "Read-outs that look alike come from different tables or passages of the source.",
  "data": [
    {"smiles": "CCCN[C@@H]1CCc2nc(N)sc2C1", "note": "[dexpramipexole, (6R)-2-amino-4,5,6,7-tetrahydro-6-(propylamino) benzothiazole]", "values": [
      {"measurement": "Pre-Bronchodilator FEV1, % change from Baseline, mean", "setting": "150 mg/day, Week 8", "value": 7.57, "unit": "%"},
      {"measurement": "FEV1 change from Baseline LSM", "setting": "150 mg/day, Week 12", "value": 0.0601, "unit": "L"},
      {"measurement": "Pre-Bronchodilator FEV1, % change from Baseline, mean", "setting": "150 mg/day, Week 12", "value": 3.14, "unit": "%"},
      {"measurement": "FEV1 difference versus Placebo LSM", "setting": "150 mg/day, Week 16 or Week 18", "value": 0.161, "unit": "L"},
      {"measurement": "Pre-Bronchodilator FEV1, % change from Baseline, mean", "setting": "150 mg/day, Week 16 or Week 18", "value": 7.71, "unit": "%"},
      {"measurement": "ΔFEV1 vs Placebo LSM (SEM), pooled data", "setting": "150 mg/day, Weeks 4, 8, 12, & 16/18 pooled", "value": 126, "unit": "mL"},
      {"measurement": "Placebo-corrected FEV1 increase from baseline", "setting": "300 mg/day arm, averaged Week 8 through Week 16/18", "value": "counts. In the 300 mg/day arm, placebo-corrected FEV1 increased more than 200 mL from baseline, averaged"},
      {"measurement": "Pre-Bronchodilator FEV1 % change, mean", "setting": "[1]", "value": 15.5, "unit": "%"},
      {"measurement": "Pre-Bronchodilator FEV1 % change, median", "setting": "[1]", "value": 10.5, "unit": "%"},
      {"measurement": "Pre-Bronchodilator FEV1 change, mean", "setting": "[1]", "value": 0.277, "unit": "L"},
      {"measurement": "Pre-Bronchodilator FEV1 change, median", "setting": "[1]", "value": 0.250, "unit": "L"},
      {"measurement": "Pre-Bronchodilator FEV1 observed, mean", "setting": "[1]", "value": 2.32, "unit": "L"},
      {"measurement": "Pre-Bronchodilator FEV1 observed, median", "setting": "[1]", "value": 2.40, "unit": "L"},
      {"measurement": "Pre-Bronchodilator FEV1 % change, mean", "setting": "[2]", "value": 12.5, "unit": "%"},
      {"measurement": "Pre-Bronchodilator FEV1 % change, median", "setting": "[2]", "value": 10.0, "unit": "%"},
      {"measurement": "Pre-Bronchodilator FEV1 change, mean", "setting": "[2]", "value": 0.236, "unit": "L"},
      {"measurement": "Pre-Bronchodilator FEV1 change, median", "setting": "[2]", "value": 0.210, "unit": "L"},
      {"measurement": "Pre-Bronchodilator FEV1 observed, mean", "setting": "[2]", "value": 2.29, "unit": "L"},
      {"measurement": "Pre-Bronchodilator FEV1 observed, median", "setting": "[2]", "value": 2.45, "unit": "L"},
      {"measurement": "FEV1 change from Baseline LSM", "setting": "300 mg/day, Week 4", "value": 0.0685, "unit": "L"},
      {"measurement": "FEV1 difference versus Placebo LSM", "setting": "300 mg/day, Week 4", "value": 0.0838, "unit": "L"},
      {"measurement": "Pre-Bronchodilator FEV1 % change, median", "setting": "300 mg/day, Week 4", "value": 3.95, "unit": "%"},
      {"measurement": "Pre-Bronchodilator FEV1, % change from Baseline, mean", "setting": "300 mg/day, Week 4", "value": 1.42, "unit": "%"},
      {"measurement": "Pre-Bronchodilator FEV1 change, mean", "setting": "300 mg/day, Week 4", "value": 0.0417, "unit": "L"},
      {"measurement": "Pre-Bronchodilator FEV1 change, median", "setting": "300 mg/day, Week 4", "value": 0.0700, "unit": "L"},
      {"measurement": "Pre-Bronchodilator FEV1 observed, mean", "setting": "300 mg/day, Week 4", "value": 2.14, "unit": "L"},
      {"measurement": "Pre-Bronchodilator FEV1 observed, median", "setting": "300 mg/day, Week 4", "value": 2.16, "unit": "L"},
      {"measurement": "Pre-Bronchodilator Percent Predicted FEV1 % change, mean", "setting": "300 mg/day, Week 4", "value": 1.42, "unit": "%"},
      {"measurement": "Pre-Bronchodilator Percent Predicted FEV1 % change, median", "setting": "300 mg/day, Week 4", "value": 3.94, "unit": "%"},
      {"measurement": "Pre-Bronchodilator Percent Predicted FEV1 change, mean", "setting": "300 mg/day, Week 4", "value": 0.607, "unit": "%"},
      {"measurement": "Pre-Bronchodilator Percent Predicted FEV1 change, median", "setting": "300 mg/day, Week 4", "value": 2.34, "unit": "%"},
      {"measurement": "Pre-Bronchodilator Percent Predicted FEV1 observed, mean", "setting": "300 mg/day, Week 4", "value": 62.5, "unit": "%"},
      {"measurement": "Pre-Bronchodilator Percent Predicted FEV1 observed, median", "setting": "300 mg/day, Week 4", "value": 62.3, "unit": "%"},
      {"measurement": "FEV1 change from Baseline LSM", "setting": "300 mg/day, Week 8", "value": 0.248, "unit": "L"},
      {"measurement": "FEV1 difference versus Placebo LSM", "setting": "300 mg/day, Week 8", "value": 0.254, "unit": "L"},
      {"measurement": "Pre-Bronchodilator FEV1, % change from Baseline, mean", "setting": "300 mg/day, Week 8", "value": 15.5, "unit": "%"},
      {"measurement": "FEV1 change from Baseline LSM", "setting": "300 mg/day, Week 12", "value": 0.209, "unit": "L"},
      {"measurement": "FEV1 difference versus Placebo LSM", "setting": "300 mg/day, Week 12", "value": 0.162, "unit": "L"},
      {"measurement": "Pre-Bronchodilator FEV1, % change from Baseline, mean", "setting": "300 mg/day, Week 12", "value": 12.5, "unit": "%"},
      {"measurement": "FEV1 change from Baseline LSM", "setting": "300 mg/day, Week 16 or Week 18", "value": 0.207, "unit": "L"},
      {"measurement": "FEV1 difference versus Placebo LSM", "setting": "300 mg/day, Week 16 or Week 18", "value": 0.240, "unit": "L"},
      {"measurement": "Pre-Bronchodilator FEV1, % change from Baseline, mean", "setting": "300 mg/day, Week 16 or Week 18", "value": 10.8, "unit": "%"},
      {"measurement": "ΔFEV1 vs Placebo LSM (SEM), pooled data", "setting": "300 mg/day, Weeks 4, 8, 12, & 16/18 pooled", "value": 185, "unit": "mL"},
      {"measurement": "Improvement in FEV1", "setting": "150 and 75 mg/day arms", "value": "Week 8 through Week 16/18. Substantial improvements in FEV1 were also seen in the 150 and 75 mg/day arms."},
      {"measurement": "ΔFEV1 vs Placebo LSM (SEM), pooled data", "setting": "All Dex arms pooled, Week 4", "value": 138, "unit": "mL"},
      {"measurement": "ΔFEV1 vs Placebo LSM (SEM), pooled data", "setting": "All Dex arms pooled, Week 8", "value": 212, "unit": "mL"},
      {"measurement": "ΔFEV1 vs Placebo LSM (SEM), pooled data", "setting": "All Dex arms pooled, Week 12", "value": 99, "unit": "mL"},
      {"measurement": "ΔFEV1 vs Placebo LSM (SEM), pooled data", "setting": "All Dex arms pooled, Week 16/18", "value": 233, "unit": "mL"},
      {"measurement": "ΔFEV1 vs Placebo LSM (SEM), pooled data", "setting": "All Dex arms pooled, Weeks 4, 8, 12, & 16/18 pooled", "value": 173, "unit": "mL"},
      {"measurement": "Magnitude and statistical significance of FEV1 improvement from baseline compared with other drugs", "setting": "Table 5, FIG. 3, FIG. 6", "value": "comparable or greater than that demonstrated in phase 2 clinical trials of benralizumab and mepolizumab"},
      {"measurement": "Pre-Bronchodilator FEV1 Change from Baseline LSM", "setting": "[3]", "value": 0.0742, "unit": "L"},
      {"measurement": "Pre-Bronchodilator FEV1 Difference versus Placebo LSM", "setting": "[3]", "value": 0.0859, "unit": "L"},
      {"measurement": "Pre-Bronchodilator FEV1 Change from Baseline LSM", "setting": "[4]", "value": 0.163, "unit": "L"},
      {"measurement": "Pre-Bronchodilator FEV1 Difference versus Placebo LSM", "setting": "[4]", "value": 0.175, "unit": "L"},
      {"measurement": "Pre-Bronchodilator FEV1 Difference versus Placebo LSM", "setting": "Week 8, pooled dexpramipexole arms, <50% AEC reduction at Week 12", "value": 0.132, "unit": "L"},
      {"measurement": "Pre-Bronchodilator FEV1 Change from Baseline LSM", "setting": "[5]", "value": 0.275, "unit": "L"},
      {"measurement": "Pre-Bronchodilator FEV1 Difference versus Placebo LSM", "setting": "[5]", "value": 0.276, "unit": "L"},
      {"measurement": "Pre-Bronchodilator FEV1 Change from Baseline LSM", "setting": "[6]", "value": 0.00797, "unit": "L"},
      {"measurement": "Pre-Bronchodilator FEV1 Difference versus Placebo LSM", "setting": "[6]", "value": -0.0448, "unit": "L"},
      {"measurement": "Pre-Bronchodilator FEV1 Change from Baseline LSM", "setting": "[7]", "value": 0.261, "unit": "L"},
      {"measurement": "Pre-Bronchodilator FEV1 Difference versus Placebo LSM", "setting": "[7]", "value": 0.208, "unit": "L"},
      {"measurement": "Pre-Bronchodilator FEV1 Difference versus Placebo LSM", "setting": "Week 16 or Week 18, pooled dexpramipexole arms, <50% AEC reduction at Week 12", "value": 0.169, "unit": "L"},
      {"measurement": "Pre-Bronchodilator FEV1 Change from Baseline LSM", "setting": "[8]", "value": 0.258, "unit": "L"},
      {"measurement": "Pre-Bronchodilator FEV1 Difference versus Placebo LSM", "setting": "[8]", "value": 0.287, "unit": "L"},
      {"measurement": "FEV1 in hematologic responders", "setting": "all post-baseline time points (Table 12, FIG. 5)", "value": "significant increase"}
    ]}
  ]
}
